Reference: patent US10414760B2, “Cytochrome P450 inhibitors and uses thereof” (ANGION BIOMEDICA CORP., priority 2016, dated 2019)

Each compound was assayed against T1, CYP26 (Mus musculus, UniProt O55127) (assay: CYP26 inhibition: substrate depletion assay for ATRA metabolism in mouse microsomes).
T1 construct: tissue Xenotech; host or cells: liver microsomes of ATRA-treated mice
T1 sequence (O55127 1-497): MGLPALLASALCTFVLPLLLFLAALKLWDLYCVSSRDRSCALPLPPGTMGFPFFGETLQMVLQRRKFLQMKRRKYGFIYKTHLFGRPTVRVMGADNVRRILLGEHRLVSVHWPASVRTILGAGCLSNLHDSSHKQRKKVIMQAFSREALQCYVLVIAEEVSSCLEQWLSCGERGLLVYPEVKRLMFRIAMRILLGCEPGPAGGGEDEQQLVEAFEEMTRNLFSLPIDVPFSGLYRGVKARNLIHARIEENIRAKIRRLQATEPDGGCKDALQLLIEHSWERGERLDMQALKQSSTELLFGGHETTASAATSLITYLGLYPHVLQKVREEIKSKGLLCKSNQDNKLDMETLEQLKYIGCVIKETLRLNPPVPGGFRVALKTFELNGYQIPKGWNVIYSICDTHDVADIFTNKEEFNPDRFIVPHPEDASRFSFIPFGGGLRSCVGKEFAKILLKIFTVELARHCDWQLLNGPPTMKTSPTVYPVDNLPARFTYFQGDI
Format: biochemical
Protocol: Serum Testosterone and PSA and Tumor Testosterone Analysis. Tumor tissue obtained from mice will be homogenized in phosphate buffer (pH 7.4, 0.1 M) and homogenates centrifuged at 2000 g for 20 min. Testosterone concentrations in the serum and in the clear tissue homogenate supernatant will be determined with the ELISA kit from R&D Systems (Catalog # KGR010). Serum PSA concentrations will be measured using a PSA ELISA kit with a serum dilution according to the manufacturers instructions. • c. Breast cancer. To test the efficacy of compounds embodied herein against breast cancer, nude mice carrying human breast cancer lines that are estrogen receptor and Aromatase positive will be used. Cells will be grown in vitro and 2 million will be inoculated in Matrigel (50:50 volume ratio of cells to Matrigel). Cells will be distributed by s.c. injection at the right and left flanks or at the orthotopic sitest in 6 to 8 week old athymic nude mice (BALB/c strain) or severe combined immunodeficient mice under anesthesia. Animals will be treated with compound for 4 weeks, at which point animals will be sacrificed and collect blood samples and tumor tissue for the determination of serum and tumor estrogen levels. Tumors will be excised and a portion will be fixed in formalin for subsequent histochemical and immuno-histochemical analysis. The remainder will be snap frozen in liquid nitrogen and stored at −80° C. • 12. CYP26 inhibition activity. A substrate depletion assay for ATRA metabolism in mouse microsomes is used. […] The assay is run in a 100 μL reaction volume and stopped with an equal volume of methanol. […] CYP17 inhibition assay: In vitro assays for CYP17 17α-hydroxylase and C17,20-lyase activity, assays using rat and dog testis microsomes and ELISA kits from commercial vendors for the detection of formed products are employed. Incubation of rat testis microsomes with the substrate progesterone (P4) results, through the CYP17 17α-hydroxylase and C17,20-lyase activities, in a marked production of androstenedione (AD) in a time and enzyme-concentration dependent manner. […] In another control, microsomes isolated from rat livers, which are known to express very little or no CYP17, are shown to be devoid of this activity. Assays are also used that determine the activity of 17α-hydroxylase activity using P4 as a substrate and detecting HOP4 as a product (using dog testis microsomes) and the activity of C17,20-lyase by using HOP4 as a substrate and AD as a product (rat testis microsomes). • 14. CYP19 inhibition assay: For in vitro assays of CYP19 aromatase activity, commercially available CYP19 enzyme preparations (e.g. BD Gentest Supersomes Catalog #456260) and assay kits (e.g. BD Gentest Catalog #459520) are employed according to the manufacturers instructions.
CYP26 inhibition. […] The assay was run in a 100 μL reaction volume and stopped with an equal volume of methanol. […] Other compounds of formula (I) are similarly potent, for example with an IC50 of 1.6 nM.
Work on `CCC(C(c1ccc2nc(Oc3cccc(C(=O)O)c3)sc2c1)n1ccnc1)N(C)C` (stereo not shown) [Example 54, 3-((6-(2-(Dimethylamino)-1-(1H-imidazol-1-yl)butyl)benzo[d]thiazol-2-yl)oxy)benzoic acid] yielded an IC50 of under 1 µM. Work on `CCC(C(c1ccc2nc(-c3ccc(Cl)c(C(=O)O)c3)sc2c1)n1ccnc1)N(C)C` (stereo not shown) [Example 64, 2-Chloro-5-(6-(2-(dimethylamino)-1-(1H-imidazol-1-yl)butyl)benzo[d]thiazol-2-yl)benzoic acid] yielded an IC50 of under 1 µM. For `CCC(C(c1ccc2nc(-c3ccc(-c4nn[nH]n4)cc3)sc2c1)n1ccnc1)N(C)C` (stereo not shown) [Example 72, 1-(2-(4-(2H-Tetrazol-5-yl)phenyl)benzo[d]thiazol-6-yl)-1-(1H-imidazol-1-yl)-N,N-dimethylbutan-2-amine], the IC50 was under 1 µM. `CCC(C(c1ccc2nc(NC(=O)CC(C)(C)C(=O)O)sc2c1)n1ccnc1)N(C)C` (stereo not shown) [Example 20, 4-((6-(-2-(dimethylamino)-1-(1H-imidazol-1-yl)butyl)benzo[d]thiazol-2-yl)amino)-2,2-dimethyl-4-oxobutanoic acid] gave an IC50 of under 1 µM. `CCC(C(c1ccc2nc(NC(=O)C3(C(=O)O)CCCCC3)sc2c1)n1ccnc1)N(C)C` (stereo not shown) [Example 45, 1-((6-(2-(Dimethylamino)-1-(1H-imidazol-1-yl)butyl)benzo[d]thiazol-2-yl)carbamoyl)cyclohexanecarboxylic acid] showed an IC50 of under 1 µM. For `CCC(C(c1ccc2nc(NC(=O)CCC(C)(C)C(=O)O)sc2c1)n1ccnc1)N(C)C` (stereo not shown) [Example 49, 5-((6-(-2-(Dimethylamino)-1-(1H-imidazol-1-yl)butyl)benzo[d]thiazol-2-yl)amino)-2,2-dimethyl-5-oxopentanoic acid], the IC50 was under 1 µM. Compound `CCC(C(c1ccc2nc(-c3cccc(C(=O)O)c3)sc2c1)n1ccnc1)N(C)CC` (stereo not shown) [Example 60, 3-(6-(2-(Ethyl(methyl)amino)-1-(1H-imidazol-1-yl)butyl)benzo[d]thiazol-2-yl)benzoic acid] has an IC50 of under 1 µM. In the case of `CCC(CC)C(c1ccc2nc(-c3ccc(Cl)c(C(=O)OC)c3)sc2c1)n1ccnc1` (stereo not shown) [Example 73, Methyl 2-chloro-5-(6-(2-ethyl-1-(1H-imidazol-1-yl)butyl)benzo[d]thiazol-2-yl)benzoate], the IC50 is reported as under 1 µM. Work on `CCC(C(c1ccc2nc(NC(=O)C3(C(=O)O)CCCC3)sc2c1)n1ccnc1)N(C)C` (stereo not shown) [Example 47, 1-((6-(2-(Dimethylamino)-1-(1H-imidazol-1-yl)butyl)benzo[d]thiazol-2-yl)carbamoyl)cyclopentanecarboxylic acid] yielded an IC50 of under 1 µM. `CCC(C(c1ccc2nc(-c3ccc(C(=O)OC)cc3)sc2c1)n1ccnc1)N(C)C` (stereo not shown) [Example 25, Methyl 4-(6-(2-(dimethylamino)-1-(1H-imidazol-1-yl)butyl)benzo[d]thiazol-2-yl)benzoate] gave an IC50 of under 1 µM. `CCC(CC)C(c1ccc2nc(-c3ccc(Cl)c(C(=O)O)c3)sc2c1)n1ccnc1` (stereo not shown) [Example 74, 2-Chloro-5-(6-(2-ethyl-1-(1H-imidazol-1-yl)butyl)benzo[d]thiazol-2-yl)benzoic acid] showed an IC50 of under 1 µM. In the case of `CCC(C(c1ccc2nc(NC(=O)C3(C(=O)O)CCC3)sc2c1)n1ccnc1)N(C)C` (stereo not shown) [Example 43, 1-((6-(2-(Dimethylamino)-1-(1H-imidazol-1-yl)butyl)benzo[d]thiazol-2-yl)carbamoyl)cyclobutanecarboxylic acid], the IC50 is reported as under 1 µM. `CCC(C(c1ccc2nc(NCc3cccc(C(=O)O)c3)sc2c1)n1ccnc1)N(C)C` (stereo not shown) [Example 7, 3-(((6-(2-(Dimethylamino)-1-(1H-imidazol-1-yl)butyl)benzo[d]thiazol-2-yl)amino)methyl)benzoic acid] gave an IC50 of under 1 µM. `CCC(C(c1ccc2nc(-c3cc(C(=O)O)cc(C(F)(F)F)c3)sc2c1)n1ccnc1)N(C)C` (stereo not shown) [Example 70, 3-(6-(2-(Dimethylamino)-1-(1H-imidazol-1-yl)butyl)benzo[d]thiazol-2-yl)-5-(trifluoromethyl)benzoic acid] gave an IC50 of under 1 µM. Work on `CCC(C(c1ccc2nc(NCc3ccc(C(=O)O)cc3)sc2c1)n1ccnc1)N(C)C` (stereo not shown) [Example 35, 4-(((6-(2-(Dimethylamino)-1-(1H-imidazol-1-yl)butyl)benzo[d]thiazol-2-yl)amino)methyl)benzoic acid] yielded an IC50 of under 1 µM. Work on `CCC(C(c1ccc2nc(Nc3cccc(C(=O)O)c3)sc2c1)n1ccnc1)N(C)C` (stereo not shown) [Example 39, 3-((6-(2-(dimethylamino)-1-(1H-imidazol-1-yl)butyl)benzo[d]thiazol-2-yl)amino)benzoic acid] yielded an IC50 of under 1 µM. In the case of `CCC(CC)C(c1ccc2nc(-c3ccc(C(=O)O)cc3)sc2c1)n1ccnc1` (stereo not shown) [Example 30, 4-(6-(2-Ethyl-1-(1H-imidazol-1-yl)butyl)benzo[d]thiazol-2-yl)benzoic acid], the IC50 is reported as under 1 µM. In the case of `CCC(C(c1ccc2nc(-c3ccc(C(=O)O)cc3)sc2c1)n1ccnc1)N(C)C` (stereo not shown) [Example 26, 4-(6-(2-(Dimethylamino)-1-(1H-imidazol-1-yl)butyl)benzo[d]thiazol-2-yl)benzoic acid], the IC50 is reported as under 1 µM. `CCC(C(c1ccc2nc(-c3cccc(C(=O)O)c3)sc2c1)n1ccnc1)N(C)C` (stereo not shown) [Example 56, 3-(6-(2-(Dimethylamino)-1-(1H-imidazol-1-yl)butyl)benzo[d]thiazol-2-yl)benzoic acid] gave an IC50 of under 1 µM. Work on `CCC(C(c1ccc2nc(NC(=O)C3CC4CCC3C4)sc2c1)n1ccnc1)N(C)C` (stereo not shown) [Example 52, N-(6-(-2-(dimethylamino)-1-(1H-imidazol-1-yl)butyl)benzo[d]thiazol-2-yl)bicyclo[2.2.1]heptane-2-carboxamide] yielded an IC50 of under 1 µM. `CCC(C(c1ccc2nc(-c3cc(F)cc(C(=O)O)c3)sc2c1)n1ccnc1)N(C)C` (stereo not shown) [Example 68, 3-(6-(2-(Dimethylamino)-1-(1H-imidazol-1-yl)butyl)benzo[d]thiazol-2-yl)-5-fluorobenzoicacid] gave an IC50 of under 1 µM. `CCC(C(c1ccc2nc(NC(=O)c3cccc(C(=O)O)c3)sc2c1)n1ccnc1)N(C)C` (stereo not shown) [Example 41, 3-((6-(2-(dimethylamino)-1-(1H-imidazol-1-yl)butyl)benzo[d]thiazol-2-yl)carbamoyl)benzoic acid] showed an IC50 of under 1 µM. With `CCC(CC)C(c1ccc2nc(-c3ccc(C(=O)OC)cc3)sc2c1)n1ccnc1` (stereo not shown) [Example 29, Methyl 4-(6-(2-ethyl-1-(1H-imidazol-1-yl)butyl)benzo[d]thiazol-2-yl)benzoate] the IC50 was under 1 µM. In the case of `CCC(C(c1ccc2nc(NCC(C)(C)C(=O)O)sc2c1)n1ccnc1)N(C)C` (stereo not shown) [Example 19, 3-((6-(2-(Dimethylamino)-1-(1H-imidazol-1-yl)butyl)benzo[d]thiazol-2-yl)amino)-2,2-dimethylpropanoic acid], the IC50 is reported as under 1 µM. In the case of `CCC(C(c1ccc2nc(-c3ccc(C(=O)O)c(Cl)c3)sc2c1)n1ccnc1)N(C)C` (stereo not shown) [Example 62, 2-Chloro-4-(6-(2-(dimethylamino)-1-(1H-imidazol-1-yl)butyl)benzo[d]thiazol-2-yl)benzoic acid], the IC50 is reported as under 1 µM. Work on `CCC(C(c1ccc2nc(Oc3ccc(C(=O)O)cc3)sc2c1)n1ccnc1)N(C)C` (stereo not shown) [Example 24, 4-((6-(2-(Dimethylamino)-1-(1H-imidazol-1-yl)butyl)benzo[d]thiazol-2-yl)oxy)benzoic acid] yielded an IC50 of under 1 µM. Compound `CCC(C(c1ccc2nc(Nc3ccc(C(=O)O)cc3)sc2c1)n1ccnc1)N(C)C` (stereo not shown) [Example 17, 4-((6-(2-(Dimethylamino)-1-(1H-imidazol-1-yl)butyl)benzo[d]thiazol-2-yl)amino)benzoic acid] has an IC50 of under 1 µM. `CCC(C(c1ccc2nc(NC(=O)c3ccc(C(=O)O)cc3)sc2c1)n1ccnc1)N(C)C` (stereo not shown) [Example 22, 4-((6-(2-(dimethylamino)-1-(1H-imidazol-1-yl)butyl)benzo[d]thiazol-2-yl)carbamoyl)benzoic acid] showed an IC50 of under 1 µM.
